The structures appear in SMILES notation.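 Grown in 96-well plates, cells were treated for 48 hours with each compound at five concentrations. Insufficient inhibition: endpoint recorded as highest concentration tested. Abbreviation: GI50, concentration required for 50% inhibition of growth.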 Activity calls are given as the source filed them. Rule as the data show it: active = GI50 up to about 1.1 µM and inactive = higher.

Experimental findings from ChEMBL document CHEMBL1201862, “PubChem BioAssay data set” (2004) are described below.

Some test systems named below: BT-549; CAKI-1; HOP-92; KM12; LOX IMVI; MCF7; MDA-MB-435; MDA-N; NCI-H460; NCI/ADR-RES; OVCAR-3; OVCAR-8; RPMI-8226; SF-268; SK-MEL-28; SK-MEL-2; SR; UACC-62; RXF 393.
Experiment in all cases: inhibition of tumour cell growth, NCI panel, 48 h

As for `OCCCSCCO`, the GI50 in the assay with BT-549, in the assay on CAKI-1, with HOP-92, in the assay on KM12, with LOX IMVI and in the assay with MCF7 was > 100 µM (inactive) throughout. For the same molecule, the GI50 with MDA-MB-435, in the assay on MDA-N, with NCI-H460, in the assay on NCI/ADR-RES, in the assay on OVCAR-3 and with OVCAR-8 was > 100 µM (inactive) each time. Besides, the GI50 in the assay with RPMI-8226, in the assay on SF-268, in the assay with SK-MEL-28, in the assay with SK-MEL-2, in the assay with SR and in the assay on UACC-62 was > 100 µM (inactive) in each case.
For `C/C(=N\NC(=S)NC1CCCC1)c1ccccn1`, the GI50 in the assay on BT-549 was 0.472 µM (active); with CAKI-1 it was < 0.01 µM (active); in the assay with HOP-92, 0.0718 µM (active); with KM12 it was 0.0708 µM (active); in the assay on LOX IMVI, < 0.01 µM (active); with MCF7, < 0.01 µM (active). For the same molecule, the GI50 with MDA-MB-435 is 0.578 µM (active); with MDA-N, 0.165 µM (active); in the assay with NCI-H460, 0.0533 µM (active); with NCI/ADR-RES, < 0.01 µM (active); with OVCAR-3 it was < 0.01 µM (active); in the assay on OVCAR-8, < 0.0218 µM (active). Besides, the GI50 in the assay with RPMI-8226 was < 0.01 µM (active); in the assay with SF-268, 0.569 µM (active); with SK-MEL-28 it was 3.28 µM (inactive); in the assay on SK-MEL-2, 1.35 µM (inactive); in the assay on SR, < 0.01 µM (active); in the assay with UACC-62, 0.2 µM (active).
As to `C=C1C[C@@H]2O[C@H]3[C@H]4[C@@H](C[C@@H](C)[C@@H](OC(C)=O)[C@H]42)[C@@H](C)CO[C@@]3(C)[C@H](OC(C)=O)C[C@H]1O`, the GI50 is 63.4 µM (inactive) in the assay on BT-549; > 100 µM (inactive) with CAKI-1; 66.8 µM (inactive) in the assay with HOP-92; > 100 µM (inactive) with KM12; 17.1 µM (inactive) in the assay with LOX IMVI; 84.5 µM (inactive) in the assay with MCF7. The GI50 was 33 µM (inactive) in the assay with MDA-MB-435; 40.5 µM (inactive) with MDA-N; 70.8 µM (inactive) in the assay on NCI-H460; > 100 µM (inactive) in the assay with NCI/ADR-RES; 65.2 µM (inactive) with OVCAR-3; 82.6 µM (inactive) in the assay with OVCAR-8. For the same molecule, the GI50 in the assay with RXF 393 was 38.7 µM (inactive); with SF-268, > 100 µM (inactive); in the assay with SK-MEL-28, > 100 µM (inactive); in the assay on SK-MEL-2 it was > 100 µM (inactive); in the assay on SR, 43 µM (inactive); in the assay on UACC-62 it was > 100 µM (inactive).
On to `Cc1nnc2sc(-c3ccc(-c4ccccc4Cl)o3)nn12`, for which the GI50 was 24 µM (inactive) in the assay on BT-549; 56 µM (inactive) in the assay with CAKI-1; 40.2 µM (inactive) in the assay with HOP-92; 35.2 µM (inactive) with KM12; 20.9 µM (inactive) in the assay on LOX IMVI; 29.1 µM (inactive) in the assay on MCF7. Moreover, the GI50 is 18.9 µM (inactive) with MDA-MB-435; 17.9 µM (inactive) in the assay on MDA-N; 35.1 µM (inactive) in the assay on NCI-H460; 21.9 µM (inactive) in the assay on NCI/ADR-RES; 27 µM (inactive) in the assay with OVCAR-3; 19.8 µM (inactive) with OVCAR-8. Also, the GI50 with RPMI-8226 is 20.4 µM (inactive); in the assay with RXF 393 it was 33.8 µM (inactive); in the assay on SF-268, 33.9 µM (inactive); with SK-MEL-2, 26.1 µM (inactive); with SR it was 19 µM (inactive); in the assay with UACC-62 it was 35.2 µM (inactive).
`CN(/N=C/C=N/N(C)C1=NCCN1)C1=NCCN1`: the GI50 in the assay on BT-549, in the assay on CAKI-1, in the assay with HOP-92, with KM12, with LOX IMVI and with MCF7 was > 100 µM (inactive) throughout. In addition, the GI50 in the assay with MDA-MB-435, with MDA-N, in the assay with NCI-H460, in the assay on NCI/ADR-RES, in the assay on OVCAR-3 and in the assay on OVCAR-8 was > 100 µM (inactive) in each case. Further, the GI50 in the assay on SF-268, in the assay with SK-MEL-28, in the assay on SR and in the assay on UACC-62 was > 100 µM (inactive) each time.
In the case of `C1CSCCSCCCSC2CCCCC2SC1` (stereo not given), the GI50 in the assay on BT-549 was > 100 µM (inactive); in the assay with HOP-92 it was 34.4 µM (inactive); in the assay with KM12, > 100 µM (inactive); in the assay with LOX IMVI, > 100 µM (inactive); with MCF7, > 100 µM (inactive); in the assay with MDA-MB-435, > 100 µM (inactive). The GI50 is > 100 µM (inactive) in the assay on MDA-N; > 100 µM (inactive) in the assay on NCI-H460; 83.9 µM (inactive) in the assay with NCI/ADR-RES; > 100 µM (inactive) in the assay with OVCAR-3; > 100 µM (inactive) in the assay with OVCAR-8; 45.4 µM (inactive) with RPMI-8226. The GI50 in the assay with SF-268 is > 100 µM (inactive); in the assay with SK-MEL-28, > 100 µM (inactive); with SR, 46.5 µM (inactive); with UACC-62, > 100 µM (inactive).
Consider `C=C1C(=O)OC2CCN3CC=C(COC(=O)C(C)(O)C4(CO4)C1C)C23` (stereo not given), for which the GI50 in the assay on BT-549, in the assay on CAKI-1, with HOP-92, with KM12, with LOX IMVI and in the assay on MCF7 was > 100 µM (inactive) each time. Further, the GI50 with MDA-MB-435, in the assay on MDA-N, in the assay on NCI-H460, with NCI/ADR-RES, in the assay with OVCAR-8 and in the assay on RXF 393 was > 100 µM (inactive) each time. Moreover, the GI50 with SF-268, in the assay on SK-MEL-28, in the assay with SK-MEL-2, in the assay with SR and in the assay with UACC-62 was > 100 µM (inactive) in each case.
Turning to `Cn1c(=O)oc2cc(C(O)CN3CCN(Cc4ccccn4)CC3)c(Cl)cc21` (stereo not given), the GI50 with BT-549, in the assay on CAKI-1, in the assay on HOP-92, with KM12, with LOX IMVI and in the assay with MCF7 was > 100 µM (inactive) throughout. The GI50 in the assay on MDA-MB-435 was > 100 µM (inactive); in the assay on MDA-N it was > 100 µM (inactive); in the assay on NCI-H460, > 100 µM (inactive); with NCI/ADR-RES it was 0.461 µM (active); in the assay with OVCAR-3, > 100 µM (inactive); with OVCAR-8, > 100 µM (inactive). The GI50 was > 100 µM (inactive) in the assay with RXF 393; > 100 µM (inactive) in the assay with SF-268; > 100 µM (inactive) with SK-MEL-28; 23.3 µM (inactive) in the assay on SR; > 100 µM (inactive) in the assay on UACC-62.
With `CCOC(=O)C(=O)/C(=C/NC(=S)c1ccncc1)C(=O)OCC`, the GI50 in the assay on BT-549, in the assay with CAKI-1, with KM12, with LOX IMVI, in the assay on MCF7 and in the assay with MDA-MB-435 was > 100 µM (inactive) in each case. For the same molecule, the GI50 in the assay with MDA-N was > 100 µM (inactive); with NCI-H460, > 100 µM (inactive); in the assay on NCI/ADR-RES it was > 100 µM (inactive); in the assay with OVCAR-3, 0.0724 µM (active); in the assay with OVCAR-8, > 100 µM (inactive); with RPMI-8226 it was > 100 µM (inactive). Besides, the GI50 in the assay on RXF 393, in the assay with SF-268, in the assay with SK-MEL-28, in the assay with SK-MEL-2, in the assay on SR and in the assay on UACC-62 was > 100 µM (inactive) throughout.
Turning to `Oc1ccc(Oc2cc3c(cc2Oc2ccc(O)cc2)-c2nc-3nc3[nH]c(nc4nc(nc5[nH]c(n2)c2cc(Oc6ccc(O)cc6)c(Oc6ccc(O)cc6)cc52)-c2cc(Oc5ccc(O)cc5)c(Oc5ccc(O)cc5)cc2-4)c2cc(Oc4ccc(O)cc4)c(Oc4ccc(O)cc4)cc32)cc1`, the GI50 is > 100 µM (inactive) in the assay on BT-549; > 100 µM (inactive) in the assay on CAKI-1; > 100 µM (inactive) in the assay on HOP-92; > 100 µM (inactive) in the assay on KM12; 39.9 µM (inactive) in the assay with LOX IMVI; > 100 µM (inactive) in the assay on MCF7. The GI50 with MDA-MB-435, in the assay with MDA-N, in the assay on NCI-H460, in the assay with NCI/ADR-RES, with OVCAR-3 and in the assay on OVCAR-8 was > 100 µM (inactive) each time. Besides, the GI50 was > 100 µM (inactive) in the assay with SF-268, > 100 µM (inactive) in the assay on SK-MEL-28, > 100 µM (inactive) in the assay with SR and 76 µM (inactive) in the assay with UACC-62.
`COc1ccccc1C(=O)NO`: the GI50 is > 100 µM (inactive) in the assay on BT-549; > 100 µM (inactive) with CAKI-1; 39.5 µM (inactive) in the assay with KM12; > 100 µM (inactive) in the assay with LOX IMVI; > 100 µM (inactive) in the assay with MCF7; > 100 µM (inactive) with MDA-MB-435. The GI50 was > 100 µM (inactive) in the assay with MDA-N; 62.7 µM (inactive) in the assay with NCI-H460; > 100 µM (inactive) in the assay with NCI/ADR-RES; > 100 µM (inactive) in the assay on OVCAR-3; > 100 µM (inactive) with OVCAR-8; > 100 µM (inactive) in the assay on RPMI-8226. The GI50 with RXF 393, with SF-268, in the assay with SK-MEL-28, in the assay on SK-MEL-2, with SR and in the assay with UACC-62 was > 100 µM (inactive) throughout.
